From paper PMC3448856 (Biochemistry, 2012)
Several values for one entry are separate records, joined by “and”; a condition that tells them apart may be missing. Identical values can stand only once. Peptide text beside a SMILES is read from it. * marks the point of attachment. Tos = Cc1ccc(S(=O)(=O)*)cc1; Bn = c1ccc(C*)cc1

How the values were obtained:
APE-1 [1] = target: T1, APE-1 (Homo sapiens, UniProt P27695); test: Molecular beacon assay for APE-1 endonuclease inhibition; type: biochemical; settings: endonuclease activity; cells printed ND
T1 sequence (P27695 whole entry): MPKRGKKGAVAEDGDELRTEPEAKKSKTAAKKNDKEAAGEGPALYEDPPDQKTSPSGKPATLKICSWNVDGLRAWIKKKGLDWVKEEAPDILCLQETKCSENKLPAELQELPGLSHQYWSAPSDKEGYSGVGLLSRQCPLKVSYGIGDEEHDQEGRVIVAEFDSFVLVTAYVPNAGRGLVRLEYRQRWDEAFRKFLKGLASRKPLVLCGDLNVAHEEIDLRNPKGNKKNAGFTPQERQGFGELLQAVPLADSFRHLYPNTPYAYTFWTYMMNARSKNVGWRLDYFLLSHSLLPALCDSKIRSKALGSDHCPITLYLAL

APE-1 [2] = target: T1, APE-1; test: Gel-based assay for APE-1 inhibitors; type: biochemical; settings: in gel excision assay; 20 nM APE-1, 100 nM duplex DNA with THF abasic site
T98G cells [3] = test: Quantification of abasic sites; settings: for level of aldehyde reactive sites (ARS): 0.25 μM compound alone, up to 18 h, background 1/10^5 nucleotides; for level of ARS in combination with MeLex: 80 μM MeLex + 0.25 μM compound, through at least 12 h
[4] = target: APE-1 activity in T98G cell nuclear lysates (Homo sapiens, UniProt P27695); test: Molecular beacon assay with T98G cell nuclear lysates; type: biochemical; settings: EC2nM APE-1 activity
APE-1 activity in T98G cell nuclear lysates, sequence (P27695 whole entry, stated change not applied): as the sequence (P27695 whole entry) above

T98G cells [5] = test: Potentiation of MeLex cytotoxicity, short-term; type: cell-based, human; settings: for LD50 of MeLex in the presence of LD10 concentration of inhibitor: 72 h MTS assay, MeLex by itself 267 μM
[6] = system: hairpin with the THF abasic site; test: UV melting, hairpin with THF abasic site; type: binding
[7] = system: self-complementary sequence 5′-GAGAGCGCTCTC; test: UV melting, self-complementary DNA; type: binding; settings: TM without compound 36.4 °C
T98G cells [8] = test: Potentiation of MeLex cytotoxicity, long term; type: cell-based, human; settings: long term assay; for LD50 of MeLex in the presence of LD10 concentration of inhibitor: MeLex alone 9.9 μM
T98G cells [9] = test: Short term; type: cell-based, human; settings: for LD10 concentration: 72 h MTS assay
T98G cells [10] = test: Long term; type: cell-based, human
THF modified hairpin DNA = test: EtBr fluorescence titration with THF modified hairpin DNA; type: binding; settings: THF modified hairpin DNA (data not shown)
unmodified hairpin DNA = test: EtBr fluorescence titration with unmodified hairpin DNA; type: binding; settings: unmodified hairpin DNA (data not shown)
DNA with a bulge = settings: cited from earlier work
double-stranded DNA = settings: cited from earlier work
[11] = system: SKOV-3X ovarian tumor cells; settings: read-out: IC50 for cell growth; cited from earlier work
APE-1 [12] = target: T1, APE-1; test: Fluorescence binding of 4 to APE-1 and displacement by E3330; settings: displacement of 6 μM 4 from 1 μM APE-1
APE-1 redox = settings: read-out: IC50 for redox inhibition; cited from earlier work
[13] = system: HEYC-2 ovarian tumor cells; settings: read-out: IC50 for cell growth; cited from earlier work
[14] = system: APE-1 endonuclease activity; settings: at 100 μM concentration; cited from earlier work
VERA kidney cell line = settings: read-out: IC50 for the toxicity; cited from earlier work

COc1ccc2c(C)cc(N/N=C(\C)c3cn(C)n(-c4ccccc4)c3=O)nc2c1 [Compound 8]
Ki (APE-1 [1]): > 100 µM | IC50 (APE-1 [2]): > 100 µM | level of aldehyde reactive sites (ARS) (T98G cells [3]): same as background

COc1cccc(/C=N/Nc2cc(C)nc3cc4c(cc23)OCO4)c1 [Compound 2]
Ki [4]: 0.24 µM | IC50 (APE-1 [2]): 10.1 µM

C/C(=N\Nc1cc(C)nc2cc3c(cc12)OCO3)c1cn(C)n(-c2ccccc2)c1=O [Compound 1]
Ki [4]: 0.45 µM | LD50 of MeLex in the presence of LD10 concentration of inhibitor (T98G cells [5]): 54 µM | increase in stability (TM) of hairpin [6]: > 9 °C | TM of DNA in presence of compound [7]: 40.8 °C | IC50 (APE-1 [2]): 4.4 µM | LD50 of MeLex in the presence of LD10 concentration of inhibitor (T98G cells [8]): 2.0 µM | LD10 concentration (T98G cells [9]): 2.20 µM | level of ARS in combination with MeLex (T98G cells [3]): 50 sites/10^5 nucleotides | LD10 concentration (T98G cells [10]; long term assay): 0.17 µM

O=C(NNc1ccnc2cc(Cl)ccc12)/C(=C/c1ccccc1Cl)NC(=O)c1ccccc1 [Compound 15]
Ki (APE-1 [1]): > 100 µM

CC[n+]1c(-c2ccccc2)c2cc(N)ccc2c2ccc(N)cc21 [EtBr, ethidium bromide]
Kd (THF modified hairpin DNA): 1.8 µM | Kd (unmodified hairpin DNA): 1.6 µM | stronger binding to DNA with a bulge than to double-stranded DNA (DNA with a bulge): ~10 fold | Kd (double-stranded DNA): ~1 µM | level of aldehyde reactive sites (ARS) (T98G cells [3]): no affect | level of ARS in combination with MeLex (T98G cells [3]): dropped off

Cc1cc(N/N=C/c2c(C)n(C)n(-c3ccccc3)c2=O)c2cc3c(cc2n1)OCO3 [Compound 5]
Ki [4]: 1.41 µM | LD50 of MeLex in the presence of LD10 concentration of inhibitor (T98G cells [5]): 80 µM | IC50 (APE-1 [2]): 34.4 µM | LD50 of MeLex in the presence of LD10 concentration of inhibitor (T98G cells [8]): 3.6 µM | LD10 concentration (T98G cells [9]): 6.50 µM | fold less toxic than 4 (T98G cells [9]; assay (short or long term) not stated): ~20 fold | increase in ARS above background (T98G cells [3]; 0.25 μM compound): approximately 4 fold | LD10 concentration (T98G cells [10]; long term assay): 0.90 µM

CC(NC(=O)/C(=C\c1ccccc1)NC(=O)c1ccccc1)c1ccccc1 (stereo not drawn) [Compound 22]
Ki (APE-1 [1]): > 100 µM

CC(N)C(=O)NC1C(CO)OC(n2cnc3c(N)ncnc32)C1O (stereo not drawn) [Compound 17]
Ki (APE-1 [1]): > 100 µM

CNC(=O)Oc1cc([N+](C)(C)C)ccc1C [Compound 21]
Ki (APE-1 [1]): > 100 µM

CCOC(=O)CC/C(=C\NC(=O)c1ccccc1)NC(=O)c1ccccc1 [Compound 26]
Ki (APE-1 [1]): > 100 µM

CCCCCCCCC/C(=C\C1=C(C)C(=O)C(OC)=C(OC)C1=O)C(=O)O [Compound E3330, (2E)-2-[(4,5-dimethoxy-2-methyl-3,6-dioxo-1,4-cyclohexadien-1-yl)methylene]undecanoic acid]
IC50 [11]: ~35 µM | E3330 concentration for approximately 50% decrease in the fluorescence of 4 (APE-1 [12]): approximately 12 μM | IC50 (APE-1 redox): 10 µM | LD50 of MeLex in the presence of LD10 concentration of inhibitor (T98G cells [5]): 128 µM | IC50 [13]: ~35 µM | inhibition of APE-1 endonuclease activity [14]: 3 fold | LD50 of MeLex in the presence of LD10 concentration of inhibitor (T98G cells [8]): little or no contribution | level of aldehyde reactive sites (ARS) (T98G cells [3]): returned to control levels by 18 h | level of ARS in combination with MeLex (T98G cells [3]): dropped off

Cc1cc(N/N=C/c2ccc3c(c2)OCO3)c2cc3c(cc2n1)OCO3 [Compound 3]
IC50 (APE-1 [2]): 2.9 µM | IC50 (VERA kidney cell line): 0.63 µM

Cc1ccc(S(=O)(=O)NC(CSCc2ccccc2)C(=O)NC(Cc2ccc(O)cc2)C(=O)O)cc1 (stereo not drawn) [Compound 25] (Tos-Cys(Bn)-Tyr-OH; configuration not given here)
Ki (APE-1 [1]): > 100 µM

methyl 3-(1-methyl-5-(1-methyl-5-(propylcarbamoyl)-1H-pyrrol-3-ylcarbamoyl)-1H-pyrrol-3-ylamino)-3-oxopropane-1-sulfonate [MeLex, reference compound]
LD50 (T98G cells [9]; short term (72 h) MTS assay, compound alone): 250 µM and 267 µM | induction of ARS (T98G cells [3]; 80 μM MeLex, through the first 4 h): 36 /10^5 nucleotides | LD50 (T98G cells [10]; long term assay, compound alone): 12 µM and 9.9 µM

CCn1c2ccccc2c2cc(/C=N/Nc3cc(C)nc4cc5c(cc34)OCO5)ccc21 [Compound 4]
Ki [4]: 0.21 µM | LD50 of MeLex in the presence of LD10 concentration of inhibitor (T98G cells [5]): 49 µM | potentiation of MeLex toxicity (fold more sensitive) (T98G cells [5]; short term assay, LD10 concentration of inhibitor): approximately 5 fold | increase in stability (TM) of hairpin [6]: not appreciably | TM of DNA in presence of compound [7]: 37.3 °C | IC50 (APE-1 [2]): 4.1 µM | potentiation of MeLex toxicity (T98G cells [8]; LD10 concentration of inhibitor): approximately 5 fold | LD50 of MeLex in the presence of LD10 concentration of inhibitor (T98G cells [8]): 1.6 µM | LD50 (T98G cells [9]; 3-day MTS assay): 0.96 µM | LD10 concentration (T98G cells [9]): 0.25 µM | level of aldehyde reactive sites (ARS) (T98G cells [3]): approximately 17 ARS/10^5 nucleotides | level of ARS in combination with MeLex (T98G cells [3]): 63 sites/10^5 nucleotides | LD50 (T98G cells [10]; long term (10-day) assay, called clonogenic): 0.19 µM | LD10 concentration (T98G cells [10]; long term assay): 0.08 µM

Nc1ncnc2c1ncn2C1OC(C(=O)NCC(=O)O)C(O)C1O (stereo not drawn) [Compound 16]
Ki (APE-1 [1]): > 100 µM
